{
  "source": "patent US20260364088A1",
  "about": "“TASL MIMICKING MOLECULES AND APPLICATIONS THEREOF” (CEMM - FORSCHUNGSZENTRUM FÜR MOLEKULARE MEDIZIN GMBH, priority 2022, published 2026)",
  "key": {"SLC15A4-GFP": {"biological_target": "SLC15A4-GFP (Homo sapiens, UniProt Q8N697)", "sequence (Q8N697 whole entry)": "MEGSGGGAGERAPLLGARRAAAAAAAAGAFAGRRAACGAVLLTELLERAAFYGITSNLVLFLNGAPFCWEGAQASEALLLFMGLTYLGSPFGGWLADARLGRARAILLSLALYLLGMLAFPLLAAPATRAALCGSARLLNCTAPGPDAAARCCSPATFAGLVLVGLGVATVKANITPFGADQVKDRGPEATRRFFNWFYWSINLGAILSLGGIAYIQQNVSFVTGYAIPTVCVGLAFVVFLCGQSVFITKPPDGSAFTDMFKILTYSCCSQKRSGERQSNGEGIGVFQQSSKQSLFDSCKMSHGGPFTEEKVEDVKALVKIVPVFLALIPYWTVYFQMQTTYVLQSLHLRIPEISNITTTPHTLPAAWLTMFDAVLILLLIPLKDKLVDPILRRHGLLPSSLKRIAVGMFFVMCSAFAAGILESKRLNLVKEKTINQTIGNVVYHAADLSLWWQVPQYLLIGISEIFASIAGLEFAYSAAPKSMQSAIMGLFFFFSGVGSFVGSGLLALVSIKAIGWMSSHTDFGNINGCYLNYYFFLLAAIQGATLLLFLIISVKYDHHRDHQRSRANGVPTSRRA", "experiment": "SLC15A4-GFP levels when expressed alone in HEK293T cells", "type": "cell-based", "conditions": "10 µM, 24 h", "protocol": "(§1) Cells transfected with TASL-V5 plasmid were stained for V5-tag and detected with deep red Alexa Fluor 647 secondary antibody to allow for selection in the presence of an mCherry reporter. Cells were measured either immediately after staining or in the case of live cells immediately after harvesting and washing with PBS. Data were acquired on a BD FACSCalibur (BD Biosciences) and analyzed with FlowJo software (version 10).\n(§2) For live cell imaging cells were plated in PhenoPlate 96-well plates or Ibidi m-Slide 8 (Ibidi) wells at 16 k/well and incubated over-night. Then compounds were added, if indicated, and cells were imaged after 24 h of incubation. Cells were stained with LysoTracker Deep Red L12492 (ThermoFisher) and Hoechst 34580 (ThermoFisher). […] Images were analyzed with Fiji-ImageJ.\n(§3) Encouraged by the fact that the chemical entity of the present invention was showing the desired behavior and specificity profile, it became important to better clarify the molecular basis of this uncommon mechanism of action, i.e interference with a highly specific protein interaction leading to degradation of a single complex component. The effect of dTASL1 on complex assembly was first monitored. […]"}, "[1]": {"test_system": "TNF production in human peripheral blood mononuclear cells (PBMCs)", "experiment": "TNF ELISA, R848-stimulated PBMCs", "type": "cell-based", "conditions": "bulk PBMCs, dTASL1 10 µM 24 h, R848 (5 μg/ml) 16 h, n=8", "from_the_text": "HEK293T cells and THP1 cells were purchased from ATCC, THP1 DUAL/ISRE reporter cell lines from Invivogen. CAL-1 cells were provided by T. Maeda (Nagasaki University). Cell lines—except for CAL-1—were authenticated by short tandem repeat profiling and regularly tested for mycoplasma contamination. Human primary PBMCs were isolated from the blood of anonymous healthy donors as well as SLE patients included in our biobank approved by the ethics committee of the Medical University of Vienna (EK2071/2020 and EK1075/2021). CD14^+ monocytes were purified by magnetic-activated cell sorting (Miltenyi Biotec, #130-050-201) according to the manufacturers protocol. Purity of CD14^+ cells ranged between 80.8% and 94.2% as determined by flow cytometry analysis. […]\nGiven that all evidence obtained seems to confirm the mechanistic precision of this chemical agent, any further consideration of assessing the therapeutic potential required evidence for activity in human primary cells relevant for SLE pathophysiology. The effect of dTASL1 in human peripheral blood mononuclear cells (PBMCs) was assessed. […] The impact of dTASL1 on TLR7/8 responses by directly monitoring IRF5 by confocal microscopy in B cells was assessed."}, "NF-κB p65": {"test_system": "NF-κB p65", "experiment": "NF-κB p65 nuclear translocation in CD19^+ B cells of PBMCs (confocal microscopy)", "type": "cell-based, human", "conditions": "primary B cells, dTASL1 10 µM 24 h, R848 (5 μg/ml) 3 h, n=7", "protocol": "PBMCs were treated for 24 h with DMSO or dTASL1 (10 µM) and thereafter stimulated with 5 μg/ml R848 (Invivogen) for three hours or left unstimulated. Cells were harvested and stained for 30 minutes with PE-conjugated anti-CD19 antibodies (BioLegend, #302254, 1:200 in PBS/2% FBS) on ice and fixed with 4% formaldehyde in PBS for 15 minutes at RT. Permeabilization and staining for NF-κB p65 and IRF5 and counterstaining was performed as for CAL-1 and cells were seeded at a concentration of 3×10^4 cells/well onto 384-well imaging plates. Images were acquired on a PerkinElmer Opera Phenix HCS spinning disc confocal microscope and analyzed as described above with the additional identification of B cells based on CD19 membrane staining intensity. This protocol also applies to the cells obtained from SLE patients.\nGiven that all evidence obtained seems to confirm the mechanistic precision of this chemical agent, any further consideration of assessing the therapeutic potential required evidence for activity in human primary cells relevant for SLE pathophysiology. The effect of dTASL1 in human peripheral blood mononuclear cells (PBMCs) was assessed. […] It has been previously shown that the SLC15A4-TASL module was required for TNF production in primary human monocytes. […] The impact of dTASL1 on TLR7/8 responses by directly monitoring IRF5 by confocal microscopy in B cells was assessed."}, "CAL-1 pDCs": {"test_system": "CAL-1 pDCs", "experiment": "ELISA of R848-induced responses in CAL-1 pDCs", "type": "cell-based, human", "protocol": "CAL-1, THP1 or human primary cells were incubated with dTASL1 and other identified compounds (or the corresponding volume of DMSO vehicle) for 24 h or 48 h at the indicated concentration and subsequently stimulated with R848 (5 μg/ml) for the indicated time. Supernatant or cells were recovered for ELISA, SDS-PAGE or microscopy-based analysis.\nAll enzyme-linked immunosorbent assay (ELISA) experiments were performed using diluted cell supernatant according to manufacturer's instructions. ELISA kits for human IL-6 (no. 88-7066-88), human CCL2 (no. 88-7399-88) and human TNF (no. 88-7346-77) were from Invitrogen. ELISA kit for human interferon beta […] was from PBL Assay Science (41410-1).\nBased on potency and kinetics, the compound C5 was selected for further characterization (FIG. 2E). C5 is an elongated molecule comprised of an aromatic 2-(4-ethoxyphenyl)-quinoline moiety followed by an amide bond and an aliphatic 2-methyl-1-propylpiperidine (FIG. 2F). To validate the scaffold and explore the chemical space at the aliphatic end of the compound, five analogues and an independently synthesized batch of C5 were obtained. […] Therefore the C5 compound was selected, which was named dTASL1 as its activity leads to TASL degradation, to assess effects on TLR7/8-induced signaling and responses."}, "TASL-GFP": {"biological_target": "TASL-GFP (Homo sapiens, UniProt Q8N697)", "sequence (Q8N697 whole entry)": "as above", "experiment": "TASL-GFP levels in HEK293T cells co-expressing SLC15A4 (flow cytometry, microscopy)", "type": "cell-based", "conditions": "HEK293T co-expressing SLC15A4, 10 µM, 24 h", "protocol": "as §1, §2, §3"}, "TASL-GFP (Homo sapiens)": {"test_system": "TASL-GFP (Homo sapiens)", "sequence (Q8N697 whole entry)": "as above", "experiment": "TASL-GFP levels in HEK293T cells co-expressing SLC15A4 (flow cytometry, microscopy)", "type": "cell-based", "conditions": "HEK293T co-expressing SLC15A4, 10 µM, 24 h", "protocol": "as §1, §2, §3"}},
  "data": [
    {"molecule": "CCOc1ccc(-c2cc(C(=O)NCCCN3CCCCC3C)c3ccccc3n2)cc1", "note": "(stereo not shown) [dTASL1, 2-(4-ethoxyphenyl)-N-(3-(2-methylpiperidin-1-yl)propyl) quinoline-4-carboxamide]", "values": [
      {"measurement": "total levels of SLC15A4-GFP", "setting": "SLC15A4-GFP", "value": "did not affect total levels of SLC15A4-GFP"},
      {"measurement": "TNF production", "setting": "[1]", "value": "potently impaired TNF"},
      {"measurement": "activation of NF-κB p65", "setting": "NF-κB p65", "value": "without affecting the activation of NF-κB p65"},
      {"measurement": "R848-induced responses", "setting": "CAL-1 pDCs; CAL-1 pDCs, 24 h pre-treatment, R848 (5 μg/ml) 16-24 h", "value": "strongly suppressed R848-induced responses"},
      {"measurement": "downstream type I IFN production", "setting": "CAL-1 pDCs; human monocytic and pDC cell lines", "value": "specifically impairs TLR7/8-induced IRF5 activation and downstream type I IFN production"},
      {"measurement": "TASL-GFP levels and localization by microscopy", "setting": "TASL-GFP", "value": "a reduction of TASL-GFP levels accompanied by relocalisation"},
      {"measurement": "TASL-GFP levels", "setting": "TASL-GFP (Homo sapiens)", "value": "reduced TASL-GFP levels"}
    ]}
  ]
}
